# Test results as given in PubChem BioAssay AID1918931 (Molecular Pharmacology Branch, DTP, NCI, 2023).
# Test system: 138582-337-R-J1-PDC complex spheroid viability
# Assay: Anticancer human tumor 138582-337-R-J1-PDC patient-derived Merkel cell tumor cell line growth inhibition
# Details: for IC50: curve of first compound; for viability, T/C: stronger effect = lower value
# Summary of the method: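 Multicellular complex spheroids of tumor cells with human endothelial cells (HUVEC) and mesenchymal stem cells; the LSD1 inhibitor iadademstat was combined with standard-of-care or investigational agents. Top concentration at or near clinical Cmax, half-log dilutions; final DMSO ≤0.25%.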
# [1] = second compound 0.1 µM, first compound 0.0316 µM
# [2] = second compound 0.1 µM, first compound 0.1 µM
# [3] = second compound 0.1 µM, first compound 0.316 µM
# [4] = second compound 0.1 µM, first compound 1 µM
# [5] = second compound 0.316 µM, first compound 0.0316 µM
# [6] = second compound 0.316 µM, first compound 0.1 µM
# [7] = second compound 0.316 µM, first compound 0.316 µM
# [8] = second compound 0.316 µM, first compound 1 µM
# [9] = second compound 1 µM, first compound 0.0316 µM
# [10] = second compound 1 µM, first compound 0.1 µM
# [11] = second compound 1 µM, first compound 0.316 µM
# [12] = second compound 1 µM, first compound 1 µM
# [13] = second compound 3.16 µM, first compound 0.0316 µM
# [14] = second compound 3.16 µM, first compound 0.1 µM
# [15] = second compound 3.16 µM, first compound 0.316 µM
# [16] = second compound 3.16 µM, first compound 1 µM
# [17] = second compound 10 µM, first compound 0.0316 µM
# [18] = second compound 10 µM, first compound 0.1 µM
# [19] = second compound 10 µM, first compound 0.316 µM
# [20] = second compound 10 µM, first compound 1 µM
# [21] = second compound 0.1 µM, first compound 0.00949 µM
# [22] = second compound 0.1 µM, first compound 0.03 µM
# [23] = second compound 0.1 µM, first compound 0.0949 µM
# [24] = second compound 0.1 µM, first compound 0.3 µM
# [25] = second compound 0.1 µM, first compound 0.949 µM
# [26] = second compound 0.1 µM, first compound 3 µM
# [27] = second compound 0.316 µM, first compound 0.00949 µM
# [28] = second compound 0.316 µM, first compound 0.03 µM
# [29] = second compound 0.316 µM, first compound 0.0949 µM
# [30] = second compound 0.316 µM, first compound 0.3 µM
# [31] = second compound 0.316 µM, first compound 0.949 µM
# [32] = second compound 0.316 µM, first compound 3 µM
# [33] = second compound 1 µM, first compound 0.00949 µM
# [34] = second compound 1 µM, first compound 0.03 µM
# [35] = second compound 1 µM, first compound 0.0949 µM
# [36] = second compound 1 µM, first compound 0.3 µM
# [37] = second compound 1 µM, first compound 0.949 µM
# [38] = second compound 1 µM, first compound 3 µM
# [39] = second compound 3.16 µM, first compound 0.00949 µM
# [40] = second compound 3.16 µM, first compound 0.03 µM
# [41] = second compound 3.16 µM, first compound 0.0949 µM
# [42] = second compound 3.16 µM, first compound 0.3 µM
# [43] = second compound 3.16 µM, first compound 0.949 µM
# [44] = second compound 3.16 µM, first compound 3 µM
# [45] = second compound 10 µM, first compound 0.00949 µM
# [46] = second compound 10 µM, first compound 0.03 µM
# [47] = second compound 10 µM, first compound 0.0949 µM
# [48] = second compound 10 µM, first compound 0.3 µM
# [49] = second compound 10 µM, first compound 0.949 µM
# [50] = second compound 10 µM, first compound 3 µM
# [51] = second compound 0.1 µM, first compound 0.00316 µM
# [52] = second compound 0.1 µM, first compound 0.01 µM
# [53] = second compound 0.316 µM, first compound 0.00316 µM
# [54] = second compound 0.316 µM, first compound 0.01 µM
# [55] = second compound 1 µM, first compound 0.00316 µM
# [56] = second compound 1 µM, first compound 0.01 µM
# [57] = second compound 3.16 µM, first compound 0.00316 µM
# [58] = second compound 3.16 µM, first compound 0.01 µM
# [59] = second compound 10 µM, first compound 0.00316 µM
# [60] = second compound 10 µM, first compound 0.01 µM
# 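Further: spheroids exposed to agents for 7 days.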
# 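Wherever viability, T/C is given: 100% = DMSO vehicle control viability.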
structure (smiles),measurement,setting,value
CC1(C)CCC(CN2CCN(c3ccc(C(=O)NS(=O)(=O)c4ccc(NCC5CCOCC5)c([N+](=O)[O-])c4)c(Oc4cnc5[nH]ccc5c4)c3)CC2)=C(c2ccc(Cl)cc2)C1 + NC1CC1c1ccc(-c2cccc(O)c2)cc1,IC50,second compound 0.1 µM,3.98 µM
same,IC50,second compound 0.316 µM,3.76 µM
same,IC50,second compound 1 µM,4.03 µM
same,IC50,second compound 3.16 µM,3.27 µM
same,IC50,second compound 10 µM,3.55 µM
same,"viability, T/C",[1],63.8%
same,"viability, T/C",[2],55.9%
same,"viability, T/C",[3],56.7%
same,"viability, T/C",[4],66.3%
same,"viability, T/C","second compound 0.1 µM, first compound 3.16 µM",66.6%
same,"viability, T/C","second compound 0.1 µM, first compound 10 µM",2.31%
same,"viability, T/C",[5],70.8%
same,"viability, T/C",[6],63%
same,"viability, T/C",[7],59.4%
same,"viability, T/C",[8],67.9%
same,"viability, T/C","second compound 0.316 µM, first compound 3.16 µM",58.1%
same,"viability, T/C","second compound 0.316 µM, first compound 10 µM",2.2%
same,"viability, T/C",[9],69.7%
same,"viability, T/C",[10],64.2%
same,"viability, T/C",[11],78%
same,"viability, T/C",[12],64%
same,"viability, T/C","second compound 1 µM, first compound 3.16 µM",63.5%
same,"viability, T/C","second compound 1 µM, first compound 10 µM",1.33%
same,"viability, T/C",[13],62.9%
same,"viability, T/C",[14],68.5%
same,"viability, T/C",[15],57.9%
same,"viability, T/C",[16],65.3%
same,"viability, T/C","second compound 3.16 µM, first compound 3.16 µM",51.6%
same,"viability, T/C","second compound 3.16 µM, first compound 10 µM",2.03%
same,"viability, T/C",[17],62.3%
same,"viability, T/C",[18],69.8%
same,"viability, T/C",[19],72.9%
same,"viability, T/C",[20],70.4%
same,"viability, T/C","second compound 10 µM, first compound 3.16 µM",55.6%
same,"viability, T/C","second compound 10 µM, first compound 10 µM",1.17%
CCN(c1cc(-c2ccc(CN3CCOCC3)cc2)cc(C(=O)NCc2c(C)cc(C)[nH]c2=O)c1C)C1CCOCC1 + NC1CC1c1ccc(-c2cccc(O)c2)cc1,IC50,second compound 0.1 µM,> 3 µM
same,IC50,second compound 0.316 µM,> 3 µM
same,IC50,second compound 1 µM,> 3 µM
same,IC50,second compound 3.16 µM,> 3 µM
same,IC50,second compound 10 µM,> 3 µM
same,"viability, T/C",[21],76.8%
same,"viability, T/C",[22],69.5%
same,"viability, T/C",[23],53.6%
same,"viability, T/C",[24],59.3%
same,"viability, T/C",[25],66.9%
same,"viability, T/C",[26],64.6%
same,"viability, T/C",[27],80.8%
same,"viability, T/C",[28],81%
same,"viability, T/C",[29],77.9%
same,"viability, T/C",[30],66.6%
same,"viability, T/C",[31],59%
same,"viability, T/C",[32],67.1%
same,"viability, T/C",[33],78.3%
same,"viability, T/C",[34],72.7%
same,"viability, T/C",[35],77.1%
same,"viability, T/C",[36],66.8%
same,"viability, T/C",[37],64.7%
same,"viability, T/C",[38],60.5%
same,"viability, T/C",[39],75.8%
same,"viability, T/C",[40],84.9%
same,"viability, T/C",[41],82%
same,"viability, T/C",[42],75.2%
same,"viability, T/C",[43],59.4%
same,"viability, T/C",[44],66.9%
same,"viability, T/C",[45],63.7%
same,"viability, T/C",[46],91.8%
same,"viability, T/C",[47],74%
same,"viability, T/C",[48],80.3%
same,"viability, T/C",[49],61.4%
same,"viability, T/C",[50],72.4%
COc1cc(Nc2ncc3c(n2)-c2ccc(Cl)cc2C(c2c(F)cccc2OC)=NC3)ccc1C(=O)O + NC1CC1c1ccc(-c2cccc(O)c2)cc1,IC50,second compound 0.1 µM,0.355 µM
same,IC50,second compound 0.316 µM,0.21 µM
same,IC50,second compound 1 µM,0.222 µM
same,IC50,second compound 3.16 µM,0.183 µM
same,IC50,second compound 10 µM,0.463 µM
same,"viability, T/C",[51],66.5%
same,"viability, T/C",[52],76.5%
same,"viability, T/C",[1],61.4%
same,"viability, T/C",[2],66.4%
same,"viability, T/C",[3],51.9%
same,"viability, T/C",[4],28.4%
same,"viability, T/C",[53],64.7%
same,"viability, T/C",[54],69.4%
same,"viability, T/C",[5],60.1%
same,"viability, T/C",[6],64.3%
same,"viability, T/C",[7],42.1%
same,"viability, T/C",[8],30.6%
same,"viability, T/C",[55],70.8%
same,"viability, T/C",[56],79.4%
same,"viability, T/C",[9],64.9%
same,"viability, T/C",[10],59%
same,"viability, T/C",[11],46.7%
same,"viability, T/C",[12],33.2%
same,"viability, T/C",[57],70.4%
same,"viability, T/C",[58],89.8%
same,"viability, T/C",[13],82.5%
same,"viability, T/C",[14],60.7%
same,"viability, T/C",[15],41.9%
same,"viability, T/C",[16],38.8%
same,"viability, T/C",[59],82.6%
same,"viability, T/C",[60],97%
same,"viability, T/C",[17],80.2%
same,"viability, T/C",[18],80.9%
same,"viability, T/C",[19],57.2%
same,"viability, T/C",[20],34.8%
Cn1ncnc1C1c2n[nH]c(=O)c3cc(F)cc(c23)NC1c1ccc(F)cc1 (stereo not given) + NC1CC1c1ccc(-c2cccc(O)c2)cc1,IC50,second compound 0.1 µM,> 0.1 µM
same,IC50,second compound 0.316 µM,> 0.1 µM
same,IC50,second compound 1 µM,> 0.1 µM
same,IC50,second compound 3.16 µM,> 0.1 µM
same,IC50,second compound 10 µM,> 0.1 µM
same,"viability, T/C","second compound 0.1 µM, first compound 0.000316 µM",88.1%
same,"viability, T/C","second compound 0.1 µM, first compound 0.001 µM",80.2%
same,"viability, T/C",[51],83.3%
same,"viability, T/C",[52],69.9%
same,"viability, T/C",[1],62.3%
same,"viability, T/C",[2],67.3%
same,"viability, T/C","second compound 0.316 µM, first compound 0.000316 µM",72.5%
same,"viability, T/C","second compound 0.316 µM, first compound 0.001 µM",88.3%
same,"viability, T/C",[53],74.2%
same,"viability, T/C",[54],71%
same,"viability, T/C",[5],66%
same,"viability, T/C",[6],70.7%
same,"viability, T/C","second compound 1 µM, first compound 0.000316 µM",79.8%
same,"viability, T/C","second compound 1 µM, first compound 0.001 µM",83.7%
same,"viability, T/C",[55],73%
same,"viability, T/C",[56],86.2%
same,"viability, T/C",[9],82.2%
same,"viability, T/C",[10],77%
same,"viability, T/C","second compound 3.16 µM, first compound 0.000316 µM",80.4%
same,"viability, T/C","second compound 3.16 µM, first compound 0.001 µM",91.3%
same,"viability, T/C",[57],82.5%
same,"viability, T/C",[58],81.1%
same,"viability, T/C",[13],72.1%
same,"viability, T/C",[14],77.5%
same,"viability, T/C","second compound 10 µM, first compound 0.000316 µM",99%
same,"viability, T/C","second compound 10 µM, first compound 0.001 µM",96.1%
same,"viability, T/C",[59],100%
same,"viability, T/C",[60],84.3%
same,"viability, T/C",[17],82.7%
same,"viability, T/C",[18],81.2%
NS(=O)(=O)OCC1CC(n2ccc3c(NC4CCc5ccccc54)ncnc32)CC1O (stereo not given) + NC1CC1c1ccc(-c2cccc(O)c2)cc1,IC50,second compound 0.1 µM,0.0789 µM
same,IC50,second compound 0.316 µM,0.0737 µM
same,IC50,second compound 1 µM,0.0726 µM
same,IC50,second compound 3.16 µM,0.1 µM
same,IC50,second compound 10 µM,0.141 µM
same,"viability, T/C",[21],83.6%
same,"viability, T/C",[22],63.1%
same,"viability, T/C",[23],48.4%
same,"viability, T/C",[24],34.3%
same,"viability, T/C",[25],15.5%
same,"viability, T/C",[26],15%
same,"viability, T/C",[27],72.6%
same,"viability, T/C",[28],59%
same,"viability, T/C",[29],48.4%
same,"viability, T/C",[30],34.3%
same,"viability, T/C",[31],24.2%
same,"viability, T/C",[32],15.6%
same,"viability, T/C",[33],82.2%
same,"viability, T/C",[34],56.3%
same,"viability, T/C",[35],50.3%
same,"viability, T/C",[36],35.8%
same,"viability, T/C",[37],15.6%
same,"viability, T/C",[38],14.6%
same,"viability, T/C",[39],86.2%
same,"viability, T/C",[40],63.7%
same,"viability, T/C",[41],51.7%
same,"viability, T/C",[42],40.7%
same,"viability, T/C",[43],17.4%
same,"viability, T/C",[44],14%
same,"viability, T/C",[45],103%
same,"viability, T/C",[46],68.1%
same,"viability, T/C",[47],65.6%
same,"viability, T/C",[48],37.1%
same,"viability, T/C",[49],20.4%
same,"viability, T/C",[50],16.1%
